Here are results for two compounds from patent US20100233272A1 (priority 2007, published 2010).

A short description of series [1]: in vitro membrane permeation test (maximum drug flux). The format is physicochemical. The note with it: MFD feed solution 1000 μg/mL, permeate 20 wt % decanol in decane, 37° C., fit 0 to 60 minutes. The procedure: The NP composition was evaluated in vitro using a membrane permeation test as follows. An Accurel® PP 1 E microporous polypropylene membrane was obtained from Membrana GmbH (Wuppertal, Germany). The membrane was washed in isopropyl alcohol and rinsed in methanol in a sonicating bath for one minute at ambient temperature, and then allowed to air dry at ambient temperature. The feed side of the membrane was then plasma-treated to render it hydrophilic by placing a sample of the membrane in a plasma chamber. The atmosphere of the plasma chamber was saturated with water vapor at a pressure of 550 mTorr. A plasma was then generated using radio frequency (RF) power inductively coupled into the chamber via annular electrodes at a power setting of 50 Watts for 45 seconds. The contact angle of a drop of water placed on the surface of the plasma-treated membrane was about 40°. […]
To form the feed solution, a 13.33 mg sample of the solid NP composition was weighed into the feed reservoir. […] Samples were then diluted in 250 μL IPA and analyzed using HPLC. […] UV absorbance was measured at 254 nm.
The maximum flux of drug across the membrane (in units of μg/cm^2-min) was determined by performing a least-squares fit to the concentration versus time data from 0 to 60 minutes to obtain the slope, multiplying the slope by the permeate volume (5 mL), and dividing by the membrane area (4.9 cm^2).

A short description of series [2]: in vitro dissolution test of solubility-improved forms in MFD solution (microcentrifuge). The format is physicochemical. The note with it: MFD solution (PBS pH 6.5, 0.5 wt % NaTC/POPC), 37° C., 1000 μgA/mL if all dissolved. The procedure:
An in vitro dissolution test was used to determine the dissolution performance of the HPMCAS SDD. […] The test was run in duplicate. The test tubes were placed in a 37° c. temperature-controlled chamber, and an MFD solution consisting of 1.8 mL PBS at pH 6.5 and 290 mosm/kg, containing 7.3 mm sodium taurocholic acid and 1.4 mm of 1-palmitoyl-2-oleyl-sn-glycero-3-phosphocholine (0.5 wt % NaTC/POPC) was added to each tube. The samples were mixed with a vortex mixer for one minute, then centrifuged at 13,000 g and 37° C. for one minute. The resulting supernatant solution was then sampled and diluted 1:5 (by volume) with methanol and analyzed by high-performance liquid chromatography (HPLC). HPLC analysis was performed using a Zorbax SB-C8 column. The mobile phase consisted of 45% 5 mm triethanolamine, adjusted to pH 7.0, and 55% acetonitrile, with a flow rate of 1.5 mL/min. UV absorbance was measured at 254 nm. The contents of each tube were mixed on the vortex mixer and allowed to stand undisturbed at 37° C. until the next sample was taken. Samples were collected at 4, 10, 20, 40, 90, and 1200 minutes.
The concentrations of drug obtained in these samples were used to determine the maximum dissolved concentration of drug and the area under the concentration-versus-time curve during the initial 90 minutes (MDC90 and DAUC90, respectively). […]

Series [3] is described as follows: physchem. The note with it: pH 7, aqueous buffer.
The nature of series [4]: GastroPlus (ACAT) simulation of absorption and pharmacokinetics. The note with it: estimated based on clinical data.
Excerpt: GastroPlus™ is a computer program that simulates absorption and pharmacokinetics for orally dosed drugs.
GastroPlus™ was used to simulate the absorption and pharmacokinetics of the reference and test formulations.
The drug release profiles were used by the software to calculate the drug concentration in each compartment. The estimated human permeability data were computed using a modification of the human fasted log D absorption model to account for permeability. The model then calculated the fraction of the dose absorbed based on the ACAT model using drug concentration, permeability, surface area, and transit time in each compartment. Pharmacokinetic parameters, e.g. volume of distribution, clearance, and micro-constants were added to the software in the pharmacokinetic page, which enabled the software to calculate plasma concentration—time curves.
In the physiology page, a user-supplied physiology file was provided to the program as an input file, consisting of the following transit times for each compartment (hr): 0.1, 0.25, 0.5, 0.5, 1.0, 1.0, 1.0, 8.0, and 24.0 hr.
The model was used to evaluate the performance of the dosage forms of the invention.

In brackets after ≈: the same amount, converted by molar mass.

As for `Cc1ccc(-c2cc(C(F)(F)F)nn2-c2ccc(S(N)(=O)=O)cc2)cc1` [Crystalline celecoxib, celecoxib], the “Maximum Drug Flux” value in series [1] was 1.0 μg/cm^2-min. Further, in series [2], the “DAUC90 (area under the concentration-versus-time curve during the initial 90 minutes)” value is reported as 4100 min*μgA/mL and the “MDC90 (maximum dissolved concentration of drug during the initial 90 minutes)” value is 60 μgA/mL.
What is called solubility is the dissolved amount per volume that the medium holds. In series [3], `Cc1ccc(-c2cc(C(F)(F)F)nn2-c2ccc(S(N)(=O)=O)cc2)cc1` [celecoxib] returned a solubility of 11.6 µg/mL (≈ 30.4 µM). Also, the “human permeability (Peff)” value in series [4] was 112.62 ×10⁻⁶ cm/s.
